# From patent publication US20040259926A1, “3-Aryloxy and 3-heteroaryloxy substituted benzo[b]thiophenes as therapeutic agents” (priority 2003, published 2004)
# Where a name gives a salt, the structure may show the parent alone.
# Target: T1, PI3Kγ (recombinant p101/p110γ protein) (Homo sapiens, UniProt P48736)
# T1 construct: HA; made in house; host or cells: Spodoptera frugiperda (Sf9) cells, baculovirus co-infection
# Test: PI3Kγ In Vitro Kinase Assay
# Type: biochemical
# Details: purified recombinant p101/p110γ with G protein β1/γ2 subunits; 20 μM ATP, [γ-32P-ATP]; 25 μM PIP2 lipid micelles; 20 minutes at room temperature
# Description: Spodtera frugiperda cells, grown in ESF921 media, were coinfected with baculovirus expressing a glu-tagged […] and baculovirus expressing an HA-tagged p110γ, at a 3:1 ratio of p101 baculovirus to p110γ baculovirus. Sf9 cells were grown to 1×10^7 total cells/mL in 10 L bioreactors and harvested 48-72 hours post infection. Samples of infected cells were then tested for expression of p101/p110γ PI3 kinase by immunoprecipitation and Western Blot analysis methods (see below).
# To purify PI3Kγ, 4 volumes of room temperature hypotonic lysis buffer (1 mM MgCl2, 1 mM DTT, 5 mM EGTA, 1 mM Pefabloc, 0.5 μM aprotinin, 5 μM leupeptin, 2 μM pepstatin, 5 μM E64, pH 8) per gram of cell paste, was poured onto frozen cell pellets with stirring, then lysed in a nitrogen “bomb” at 400 psi (599 HC T316, Parr Instrument Co, Moline, Ill.). NaCl was added to 150 mM, and sodium cholate was added to 1% and mixed for another 45 minutes. The lysates were clarified by centrifugation for 25 minutes at 14,000 rpm. The lysates were then loaded over anti-glu-linked Protein-G Sepaharose beads (Covance Research Products, Richmond, Calif.) using 20 mL resin/50 g cell paste. The column was washed with 15 volumes of wash buffer (1 mM DTT, 0.2 mM EGTA, 1 mM Pefabloc, 0.5 μM aprotinin, 5 μM leupeptin, 2 μM pepstatin, 5 μM E64, 150 mM NaCl, 1% sodium cholate, pH 8). PI3Kγ was eluted with 6 column volumes of wash buffer that contain 100 μg/mL of a peptide that competes for binding of the glu tag. The column fractions with the eluted protein (determined by taking OD280 readings) were collected and dialyzed in 0.2 mM EGTA, 1 mM DTT, 1 mM Pefabloc, 5 μM leupeptin, 0.5% sodium cholate, 150 mM NaCl, and 50% glycerol, pH 8. The fractions were stored at −80° C. until further use.
# Spodtera frugiperda cells were coinfected with baculovirus expressing a glu-tagged G protein β1 and baculovirus expressing a G protein β2 at a 1:1 ratio of glu-tagged G protein β1 baculovirus to G protein β2 baculovirus. Sf9 cells are grown in 10 L bioreactors and harvested 48-72 hours post infection. Samples of infected cells were tested for G protein β1/β2 expression by Western Blot analysis, as described below. Cell lysates were homogenized and loaded onto a column of glu-tagged beads as in Biological Example 1 and competed off the column with a glu peptide and processed as described in Biological Example 1.
# The inhibitory properties of the compounds in Table 1 were assayed in an in vitro PI3K assay. In a 96-well polypropylene plate, each well was spotted with 2 μL of 50 times the desired final concentration of compound in DMSO. Purified recombinant p101/p110γ protein (0.03 μg; ˜2.7 nM) and G protein β1/γ2 subunits (0.09 μg; ˜57.7 nM) for each reaction was combined in the assay buffer (30 mM HEPES, 100 mM NaCl, 1 mM EGTA, and 1 mM DTT). ATP and [γ-^32P-ATP] (0.09 μCi) were added to this mixture so that the final ATP concentration in the reaction was 20 μM. Lipid micelles were formed by sonicating phosphatidylinositol-4,5-diphosphate (PIP2), phosphatidylethanolamine (PE), and Na-cholate in the assay buffer for 10 minutes, adding MgCl2 and incubating on ice for 20 minutes, for final concentrations of 25 μM PIP2, 300 μM PE, 0.02% Na-cholate, and 10 mM MgCl2 in the reaction. The reactions were started by adding equal volumes lipid and enzyme mixture in a total volume of 50 μL, allowed to run for 20 minutes at room temperature, and stopped with 100 μL 75 mM H3PO4. The lipid product was transferred to a glass fiber filter plate and washed with 75 mM H3PO4 several times. The presence of radioactive lipid product (PIP3) was measured by adding Wallac Optiphase mix to each well and counting in a Wallac 1450 Trilux plate reader (PerkinElmer Life Sciences Inc., Boston, Mass. 02118). The IC50 for each compound tested is reported in μM in Table 1: […]
# T1 sequence (P48736 whole entry, species assumed): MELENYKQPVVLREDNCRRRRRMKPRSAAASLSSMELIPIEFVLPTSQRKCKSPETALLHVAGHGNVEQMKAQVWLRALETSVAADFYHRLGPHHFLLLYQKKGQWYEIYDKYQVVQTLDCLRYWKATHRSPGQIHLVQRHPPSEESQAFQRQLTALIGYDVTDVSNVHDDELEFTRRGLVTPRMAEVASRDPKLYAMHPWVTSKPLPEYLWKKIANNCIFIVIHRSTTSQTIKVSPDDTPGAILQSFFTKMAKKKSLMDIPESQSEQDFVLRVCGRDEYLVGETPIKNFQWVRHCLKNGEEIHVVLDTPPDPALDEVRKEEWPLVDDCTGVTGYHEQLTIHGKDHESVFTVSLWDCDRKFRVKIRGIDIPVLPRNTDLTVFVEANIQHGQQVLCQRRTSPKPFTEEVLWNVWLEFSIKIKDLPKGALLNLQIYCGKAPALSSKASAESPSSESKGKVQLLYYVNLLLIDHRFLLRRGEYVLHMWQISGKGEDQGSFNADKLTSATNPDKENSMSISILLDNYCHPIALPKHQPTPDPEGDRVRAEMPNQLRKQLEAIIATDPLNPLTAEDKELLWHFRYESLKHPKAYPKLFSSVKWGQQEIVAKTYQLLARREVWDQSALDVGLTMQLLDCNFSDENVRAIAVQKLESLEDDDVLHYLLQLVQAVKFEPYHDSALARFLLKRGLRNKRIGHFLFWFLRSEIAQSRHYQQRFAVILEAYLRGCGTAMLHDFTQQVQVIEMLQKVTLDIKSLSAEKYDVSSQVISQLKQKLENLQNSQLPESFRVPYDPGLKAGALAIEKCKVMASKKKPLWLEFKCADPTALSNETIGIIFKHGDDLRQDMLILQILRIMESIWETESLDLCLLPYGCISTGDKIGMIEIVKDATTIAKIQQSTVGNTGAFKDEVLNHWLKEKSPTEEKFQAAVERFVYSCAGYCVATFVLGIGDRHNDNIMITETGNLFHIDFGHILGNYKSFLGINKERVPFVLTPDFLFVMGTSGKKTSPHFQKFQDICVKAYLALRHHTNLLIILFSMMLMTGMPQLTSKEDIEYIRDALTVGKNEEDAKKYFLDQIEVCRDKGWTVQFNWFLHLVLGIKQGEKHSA
# T1 sequence (Q8WYR1 whole entry partner, species assumed): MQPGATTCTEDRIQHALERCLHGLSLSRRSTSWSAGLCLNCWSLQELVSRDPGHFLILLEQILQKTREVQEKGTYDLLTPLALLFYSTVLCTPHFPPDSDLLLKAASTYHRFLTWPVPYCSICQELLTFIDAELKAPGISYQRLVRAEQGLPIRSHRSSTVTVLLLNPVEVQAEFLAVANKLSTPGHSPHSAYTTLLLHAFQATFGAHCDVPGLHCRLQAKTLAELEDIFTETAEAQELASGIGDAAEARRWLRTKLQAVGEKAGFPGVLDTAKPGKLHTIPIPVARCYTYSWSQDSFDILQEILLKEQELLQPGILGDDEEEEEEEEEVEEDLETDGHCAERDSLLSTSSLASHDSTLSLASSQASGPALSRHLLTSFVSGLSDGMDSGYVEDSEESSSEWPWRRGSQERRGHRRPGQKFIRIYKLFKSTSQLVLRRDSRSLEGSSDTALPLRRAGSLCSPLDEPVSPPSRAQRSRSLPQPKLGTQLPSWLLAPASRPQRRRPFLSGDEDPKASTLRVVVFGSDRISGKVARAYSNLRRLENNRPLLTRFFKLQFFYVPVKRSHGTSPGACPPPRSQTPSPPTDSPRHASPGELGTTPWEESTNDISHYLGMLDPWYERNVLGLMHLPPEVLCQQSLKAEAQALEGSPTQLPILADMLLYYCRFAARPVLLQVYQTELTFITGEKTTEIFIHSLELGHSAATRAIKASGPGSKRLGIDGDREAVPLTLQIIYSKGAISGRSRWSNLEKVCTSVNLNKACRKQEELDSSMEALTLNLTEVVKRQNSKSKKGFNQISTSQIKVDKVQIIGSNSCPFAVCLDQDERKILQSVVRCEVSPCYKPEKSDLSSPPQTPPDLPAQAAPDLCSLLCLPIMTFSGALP
row,IC50,Compound
1,71 nM,"COc1cc2c(Oc3ccc(C4CCC(C)C4)cc3)c(C(=O)Nc3nn[nH]n3)sc2cc1C (stereo not shown) [Example B.49, 5-Methoxy-6-methyl-3-[4-(3-methyl-cyclopentyl)-phenoxy]-benzo[b]thiophene-2-carboxylic acid (2H-tetrazol-5-yl)-amide]"
2,250 nM,"COc1ccc2sc(C(=O)Nc3nn[nH]n3)c(Oc3ccccc3)c2c1 [Example A.1, 5-methoxy-3-phenoxy-benzo[b]thiophene-2-carboxylic acid (2H-tetrazol-5-yl)-amide]"
3,230 nM,"COc1cc2sc(C(=O)Nc3nn[nH]n3)c(Oc3cccc(C(C)(C)C)c3)c2cc1C [Example D.7, 3-(3-tert-Butyl-phenoxy)-6-methoxy-5-methyl-benzo[b]thiophene-2-carboxylic acid (2H-tetrazol-5-yl)-amide]"
4,40 nM,"COc1cc2c(Oc3ccc(C4CCCCCC4)cc3)c(C(=O)Nc3nn[nH]n3)sc2cc1C [Example B.57, 3-(4-cycloheptyl-phenoxy)-5-methoxy-6-methyl-benzo[b]thiophene-2-carboxylic acid (2H-tetrazol-5-yl)amide]"
5,28 nM,"COc1cc2c(Oc3ccc(CC(=O)N4CCCCC4)cc3)c(C(=O)Nc3nn[nH]n3)sc2cc1C [Example B.7, 5-Methoxy-6-methyl-3-[4-(2-oxo-2-piperidin-1-yl-ethyl)-phenoxy]-benzo[b]thiophene-2-carboxylic acid (2H-tetrazol-5-yl)-amide]"
6,2610 nM,"COc1cc2sc(C(=O)Nc3nnn[nH]3)c(Oc3ccc(CCCSc4ccc(Cl)cc4)cc3)c2cc1C [Example D.8, 3-{4-[3-(4-Chlorophenenyl)sulfanylpropyl]phenoxy}-6-methoxy-5-methylbenzo[b]thiophene-2-caboxylic acid(1H-tetrazolyl)amide trifluroacetic acid salt]"
7,119 nM,"CCc1ccccc1Oc1c(C(=O)Nc2nn[nH]n2)sc2ccc(OC)cc12 [Example A.15, 3-(2-Ethyl-phenoxy)-5-Methoxy-benzo[b]thiophene-2-carboxylic acid (2H-tetrazol-5-yl)-amide]"
8,29 nM,"COc1cc2c(Oc3ccc(C(C)c4ccccc4)cc3)c(C(=O)Nc3nn[nH]n3)sc2cc1C (stereo not shown) [Example B.30, 5-Methoxy-6-methyl-3-[4-(1-phenyl-ethyl)-phenoxy]-benzo[b]thiophene-2-carboxylic acid (2H-tetrazol-5-yl)-amide]"
9,1160 nM,"COc1cc2sc(C(=O)Nc3nnn[nH]3)c(OCc3cccc(Oc4ccccc4)c3)c2cc1OC [Example C.12, 5,6-Dimethoxy-3-(3-phenoxy-benzyloxy)-benzo[b]thiophene-2-carboxylic acid (1H-tetrazol-5-yl)-amide]"
10,185 nM,"COc1cc2sc(C(=O)Nc3nnn[nH]3)c(OCCc3ccc(N(C)C)cc3)c2cc1OC [Example C.27, 3-[2-(4-Dimethylamino-phenyl)-ethoxy]-5,6-dimethoxy-benzo[b]thiophene-2-carboxylic acid (1H-tetrazol-5-yl)-amide]"
11,230 nM,"COc1cc2sc(C(=O)Nc3nnn[nH]3)c(OCc3cccc(OC4CCCC4)c3)c2cc1OC [Example C.25, 3-(3-Cyclopentyloxy-benzyloxy)-5,6-dimethoxy-benzo[b]thiophene-2-carboxylic acid (1H-tetrazol-5-yl)-amide]"
12,740 nM,"COc1ccc(CCOc2c(C(=O)Nc3nnn[nH]3)sc3cc(OC)c(OC)cc23)cc1OC [Example C.16, 3-[2-(3,4-Dimethoxy-phenyl)-ethoxy]-5,6-dimethoxy-benzo[b]thiophene-2-carboxylic acid (1H-tetrazol-5-yl)-amide]"
13,885 nM,"COc1cc2sc(C(=O)Nc3nnn[nH]3)c(OCc3ccccn3)c2cc1OC [Example C.14, 5,6-Dimethoxy-3-(pyridin-2-ylmethoxy)-benzo[b]thiophene-2-carboxylic acid (1H-tetrazol-5-yl)-amide]"
14,9 nM,"COc1cc2c(Oc3ccc(C(C)(C)C)cc3)c(C(=O)Nc3nn[nH]n3)sc2cc1C [Example B.19, 3-(4-tert-Butyl-phenoxy)-5-methoxy-6-methyl-benzo[b]thiophene-2-carboxylic acid (2H-tetrazol-5-yl)-amide]"
15,2650 nM,"COc1cc2sc(C(=O)Nc3nnn[nH]3)c(OCc3ccc(-c4ccccc4)cc3)c2cc1OC [Example C.4, 3-(Biphenyl-4-ylmethoxy)-5,6-dimethoxy-benzo[b]thiophene-2-carboxylic acid (1H-tetrazol-5-yl)-amide]"
16,230 nM,"Cc1cc2sc(C(=O)Nc3nn[nH]n3)c(Oc3ccc(C4CCCCC4)cc3)c2cc1OC(F)F [Example H.2, 3-(4-Cyclohexyl-phenoxy)-5-difluoromethoxy-6-methyl-benzo[b]thiophene-2-carboxylic acid (2H-tetrazol-5-yl)-amide]"
17,29 nM,"COc1cc2c(Oc3cccc(C(C)(C)C)c3)c(C(=O)Nc3nn[nH]n3)sc2cc1C [Example B.18, 3-(3-tert-Butyl-phenoxy)-5-methoxy-6-methyl-benzo[b]thiophene-2-carboxylic acid (2H-tetrazol-5-yl)-amide]"
18,400 nM,"COc1ccc2sc(C(=O)Nc3nn[nH]n3)c(Oc3cccc(-c4ccccc4)c3)c2c1 [Example A.2, 3-(Biphenyl-3-yloxy)-5-methoxy-benzo[b]thiophene-2-carboxylic acid (2H-tetrazol-5-yl)-amide]"
19,27 nM,"COc1cc2c(Oc3ccccc3)c(C(=O)Nc3nn[nH]n3)sc2cc1C [Example B.1, 5-Methoxy-6-methyl-3-phenoxy-benzo[b]thiophene-2-carboxylic acid (2H-tetrazol-5-yl)-amide]"
20,1520 nM,"COc1cc(COc2c(C(=O)Nc3nnn[nH]3)sc3cc(OC)c(OC)cc23)cc(OC)c1 [Example C.6, 3-(3,5-Dimethoxy-benzyloxy)-5,6-dimethoxy-benzo[b]thiophene-2-carboxylic acid (1H-tetrazol-5-yl)-amide]"
21,757 nM,"COc1cc2sc(C(=O)Nc3nnn[nH]3)c(OCCc3cccc4ncccc34)c2cc1OC [Example C.15, 5,6-Dimethoxy-3-(2-quinolin-5-yl-ethoxy)-benzo[b]thiophene-2-carboxylic acid (1H-tetrazol-5-yl)-amide]"
22,12 nM,"COc1cc2c(Oc3ccc(C4CCCCC4)cc3Br)c(C(=O)Nc3nn[nH]n3)sc2cc1C [Example B.74, 3-(2-Bromo-4-cyclohexyl-phenoxy)-5-methoxy-6-methyl-benzo[b]thiophene-2-carboxylic acid (2H-tetrazol-5-yl)-amide]"
23,102 nM,"COc1cc2c(Oc3ccc(C4CCC(C)(C)CC4)cc3)c(C(=O)Nc3nn[nH]n3)sc2cc1C [Example B.55, 3-[4-(4,4-Dimethyl-cyclohexyl)-phenoxy]-5-methoxy-6-methyl-benzo[b]thiophene-2-carboxylic acid (2H-tetrazol-5yl)-amide]"

row,Compound,IC50
1,3-(4-Benzoyl-phenoxy)-5-methoxy-6-methyl-benzo[b]thiophene-2-carboxylic acid (2H-tetrazol-5-yl)-amide [Example B.35],27 nM
2,"COc1cc2c(Oc3ccc(OC4CCC4)cc3)c(C(=O)Nc3nn[nH]n3)sc2cc1C [Example B.33, 3-(4-Cyclobutoxy-phenoxy)-5-methoxy-6-methyl-benzo[b]thiophene-2-carboxylic acid (2H-tetrazol-5-yl)-amide]",7 nM
